Assay results as given in patent US20250319117A1, “METHODS AND COMPOSITIONS FOR TREATING FIBROSIS” (THE UNIVERSITY OF CHICAGO, priority 2021, published 2025).

What was measured:
fibrosis = conditions: literature [4], [6]; cited from earlier work
[1] = target: Integrin-αM (human, on monocyte-derived myofibroblasts) (human) (UniProt P11215); test: cell-based or functional assay
[2] = tested on: mouse monocyte-derived myofibroblasts; test: Flow cytometry of mouse monocyte-derived myofibroblasts treated with antibodies or leukadherin; format: cell-based; conditions: antibody 500 ng/ml
From the text: (§1) Myofibroblasts were de-differentiated by addition of antibodies (α-αMβ2, α-αM, α-α3) for 7 days after the 5 day differentiation was completed. Antibodies were free of azide, glycerol, and other preservatives.
(§2) Cultured myofibroblasts were lifted with ice cold trypsin-EDTA (Sigma), followed by mechanical agitation by a rubber policeman. Myofibroblasts were fixed and permeabilized using Cytofix/Cytoperm (BD biosciences, Franklin Lakes, NJ), and live-dead stained (live-dead aqua, ThermoFisher) per manufacturer's instructions. Antibodies used were α-collagen I (Biolegend, San Diego, CA), anti-α smooth muscle actin (αSMA) (R and D systems, Minneapolis, MN), α-ki-67 (BD biosciences), and α-talin2 (R and D systems). Compensation was performed via UltraComp beads (ThermoFisher) per the manufacturer's instructions.

[3] = tested on: human monocyte-myofibroblast differentiation; test: Human monocyte-myofibroblast de-differentiation assessed by morphology; format: cell-based; conditions: added to culture of human monocyte-myofibroblasts (FIG. 1A, 1B)
Description: Monocytes were purified from PBMCs by use of a negative selection kit for human monocytes (Stemcell, Cambridge, MA), per the manufacturer's instructions. Approximately 20 million monocytes were purified from each filter. Monocytes were then washed by PBS using five successive 300×G centrifugation steps, in order to remove EDTA from the resulting population. Monocytes were checked for purity using flow cytometry, and average purity was above 95%. Monocytes were cultured immediately following purification, at 100,000 monocytes/cm^2.
(§3) Human and mouse monocytes were cultured as previously described, using serum-free media (SFM). Briefly, SFM for human cells is composed of fibrolife (Lifeline, Frederick, MD), with 1× ITS-3 (Sigma, St. Louis, MO), 1× HEPES buffer (Sigma), 1× non-essential amino acids (Sigma), 1× sodium pyruvate (Sigma), and penicillin-streptomycin with glutamate (Sigma). For mouse monocytes, 2× concentrations of ITS-3, HEPES buffer, non-essential amino acids, and sodium pyruvate were added, with 50 μM β-mercaptoenthanol (ThermoFisher) and pro-fibrotic supplements M-CSF (25 ng/ml, Peprotech, Rocky Hill, NJ) and IL-13 (50 ng/ml) to induce myofibroblast differentiation. Additionally, M-CSF and IL-13 were refreshed in the media of mouse monocytes after 3 days of culture. Monocytes were allowed to differentiate for 5 days, and counted based on morphology as previously described. […]

[4] = tested on: human monocyte-derived myofibroblasts; test: Flow cytometry of human monocyte-derived myofibroblasts treated with antibodies or leukadherin; format: cell-based; conditions: antibody 500 ng/ml, leukadherin 2 ng/ml
From the text: as §1, §2

[5] = tested on: mouse monocyte-derived myofibroblasts; test: Mouse monocyte-derived myofibroblast de-differentiation assessed by morphology; format: cell-based; conditions: 1 week (FIG. 2A, 2B)
From the text: Spleens were pushed through a 100 µm filter to disassociate the cells. Monocytes were purified from disassociated cells by use of a negative selection kit (Stemcell), following the manufacturer's instructions. The purified monocytes were then washed by PBS using five successive 300×G centrifugation steps, in order to remove EDTA from the resulting population. Monocytes were checked for purity using flow cytometry, and average purity was above 95%. The average yield was 1.5 million monocytes per spleen. Monocytes were cultured immediately following purification, at 250,000 monocytes/cm^2.
as §3, with “Additionally, M-CSF and IL-13 were refreshed in the media of mouse monocytes after 3 days of culture.” left out

[6] = tested on: human monocyte-derived myofibroblasts; test: Legendplex ELISA of conditioned media, human monocyte-derived myofibroblasts; format: cell-based; conditions: antibody 500 ng/ml, leukadherin 2 ng/ml
Description: Supernatant from cultured human and mouse myofibroblasts were thawed at 4 C, and centrifuged at 4 C and 10,000×G to pellet cell debris. Supernatant was taken and added to 96 well round bottom plates, in duplicate. Legendplex (Biolegend) beads against general inflammation markers were added, according to the manufacturer's instructions. Sample readouts were normalized to each individual donor control.

talin1 and talin2 = conditions: literature [83]; cited from earlier work
[7] = target: Integrin αMβ2 (human, MAC1, on monocyte-derived myofibroblasts) (human) (UniProt P11215); test: cell-based or functional assay
[8] = tested on: mouse monocyte-derived myofibroblasts; test: Flow cytometry of mouse monocyte-derived myofibroblasts treated with siRNA; format: cell-based; conditions: 50 nM siRNA mixtures or individual siRNAs (FIG. 27D)
Description: Human and mouse monocytes were cultured as previously described, using serum-free media (SFM). Briefly, SFM for human cells is composed of fibrolife (Lifeline, Frederick, MD), with 1× ITS-3 (Sigma, St. Louis, MO), 1× HEPES buffer (Sigma), 1× non-essential amino acids (Sigma), 1× sodium pyruvate (Sigma), and penicillin-streptomycin with glutamate (Sigma). For mice, 2× concentrations of ITS-3, HEPES buffer, non-essential amino acids, and sodium pyruvate are added. For mouse monocytes, […] beta-mercaptoenthanol (ThermoFisher) was also added, as were pro-fibrotic supplements M-CSF (25 ng/ml, Peprotech, Rocky Hill, NJ) and IL-13 (50 ng/ml). Additionally, M-CSF and IL-13 were refreshed in the media of mouse monocytes after 3 days of culture.
Accell Silencing RNA (siRNA, Dharmacon, Lafayette, CO) is specifically engineered to penetrate cells without the use of transfection reagents, due to a cholesterol modification at one terminus of the sequence. […] Thus, Accell siRNA targets all cells in a population, not just those that are replicating. […] Lastly, Accell siRNA contains a modification that inhibits enzymatic digestion within cells. Thus, Accell siRNA made a natural choice for this experiment, and all siRNAs used in this study are Accell siRNA. siRNA was resuspended in RNAse-free ultrapure water, as per the manufacturer's instructions. […]

[9] = tested on: mouse fibroblast-derived myofibroblasts; test: Flow cytometry of mouse fibroblast-derived myofibroblasts treated with siRNA; format: cell-based; conditions: 50 nM siRNA
Description: Human fibroblasts (MRC-5, ATCC, Manassas, VA) and mouse fibroblasts (NIH-3T3, ATCC) were cultured in SFM composed for human cells, with 1× concentrations of additives. TGF-b (Peprotech) was added to induce myofibroblast formation at 5 ng/ml. Cells were cultured at 10,000/cm^2, and TGF-β was refreshed in cultures weekly to maintain the myofibroblast phenotype.
The SMARTpool of siRNA targeting human talin2 contained four target sequences, while the anti-parallel corresponding siRNA sequences actually silenced the mRNA. Target sequences: #1 (CCAGAAAACUGAACGAUUA) (SEQ ID NO:29), #2 (GCCCUGUCCUUAAAGAUUU) (SEQ ID NO:30), #3 (CGACUGUGGUUAAAUACUC) (SEQ ID NO:31), and #4 (CGAGAAAGCUUGUGAGUUU) (SEQ ID NO:32). SMARTpool targeting mouse talin2 also contained four target sequences: #1 […], #2 (CUGGAAAAUUCAGUGAUGA) (SEQ ID NO:26), #3 (CCCUGGAUUUUGAAGAACA) (SEQ ID NO:27), and #4 (CCAUCGAGUACAUAAAACA) (SEQ ID NO:28). Control non-targeting SMARTpools contained 4 target sequences, including: #1 (CCAGAAAACUGAACGAUUA) (SEQ ID NO:29), #2 (GCCCUGUCCUUAAAGAUUU) (SEQ ID NO:30), #3 (CGACUGUGGUUAAAUACUC) (SEQ ID NO:31), and #4 (CGAGAAAGCUUGUGAGUUU) (SEQ ID NO:32). Individual siRNA tested in mice was talin2 siRNA #2, target: 5′ CUGGAAAAUUCAGUGAUGA 3′ (SEQ ID NO:26), anti-sense: 5′ UCAUCACUGAAUUUUCCAG 3′ (SEQ ID NO:37). […]

[10] = tested on: bleomycin insult to mouse lungs; test: Bleomycin lung fibrosis model, lung instillation of talin2 siRNA; format: in vivo

## PRM-151: recombinant pentraxin-2
fibrosis
  effect on progression of fibrosis: shown even a modest ability to reverse fibrosis in some patients

## Cc1ccc(=O)n(-c2ccccc2)c1 [pirfenidone]
fibrosis
  effect on progression of fibrosis: slow, but do not reverse, the progression of fibrosis

## α-αM (clone ICRF44) (antibody)
[1]
  IC50 for human monocyte-myofibroblast differentiation (de-differentiation by morphology): 59.7 ng/ml

## leukadherin
[2]; leukadherin 2 ng/ml (FIG. 2C)
  αSMA+ and collagen I+ double positive myofibroblasts: increased both the amount of α αSMA^+ and collagen I^+ double positive monocyte-myofibroblasts
[2]; leukadherin 2 ng/ml (FIG. 2D)
  talin2+ cells / talin2 concentration: increasing talin2 concentration in these cells
[3]
  myofibroblast de-differentiation or differentiation as determined by morphology: promoted myofibroblasts differentiation
[4]; flow cytometry (FIG. 1C)
  αSMA+ collagen I+ double positive cells: increased the amount of αSMA^+ collagen I^+ double positive cells
[4]; flow cytometry (FIG. 1D)
  talin2 expression: nor integrin interaction promoters (Gi14, leukadherin) significantly altered talin2 expression
[5]
  myofibroblast de-differentiation or differentiation by morphology: increased monocyte-derived myofibroblast differentiation
[6]; conditioned media after 1 week (FIG. 9A)
  secreted MCP1: promoted the secretion of MCP1
[6]; conditioned media after 1 week (FIG. 9C)
  secreted IL-6: promoted the secretion of MCP1 (FIG. 9A) and IL-6

## O=C(COc1ccc2c(c1)OCO2)NC(=O)NCCc1c[nH]c2ccccc12 [KCH-1521]
talin1 and talin2
  adhesion-dependent angiogenesis: decreases adhesion-dependent angiogenesis
  distinction between talin1 and talin2: does not distinguish between talin1 and talin2

## COC(=O)c1ccc2c(c1)NC(=O)/C2=C(\Nc1ccc(N(C)C(=O)CN2CCN(C)CC2)cc1)c1ccccc1 [nintedanib]
fibrosis
  effect on progression of fibrosis: slow, but do not reverse, the progression of fibrosis

## α-αMβ2 (MAC1, clone CBRM1/5) (antibody)
[7]
  IC50 for human monocyte-myofibroblast differentiation (de-differentiation by morphology): 63.3 ng/ml

## talin2 siRNA #2: individual Accell siRNA against mouse talin2; target CUGGAAAAUUCAGUGAUGA (SEQ ID NO:26), antisense UCAUCACUGAAUUUUCCAG (SEQ ID NO:37) (Accell modifications, chemistry not fully specified)
[8]
  αSMA and collagen I double-positive cells / myofibroblast differentiation: inhibited myofibroblast differentiation by itself
[9]; mouse cell cultures (FIG. 28C)
  αSMA and collagen I double-positive myofibroblasts: most reduced both αSMA and collagen I double-positive
[9]; mouse cell cultures (FIG. 28D)
  talin2 positive myofibroblasts: most reduced both αSMA and collagen I double-positive (FIG. 28C) and talin2 positive (FIG. 28D) myofibroblasts
[10]; 200 nM by lung instillation at 7, 9, 11, 14, 16, 18 days post bleomycin, to day 21 (FIG. 29A)
  mouse weight: showed a lesser transient weight decrease than did the controls
[10]; 200 nM by lung instillation x6, day 21 (FIG. 29B-C)
  amount of collagen in the lungs (hydroxyproline assay): reduced the amount of collagen in the lungs
[10]; 200 nM by lung instillation x6, day 21 (FIG. 29D)
  blinded Ashcroft scoring of Masson's trichrome-stained lung sections: improved the histological readout of lung fibrosis
[10]; vs non-targeting siRNA and untreated fibrotic lungs (FIG. 29E-L)
  lung fibrosis in Masson's trichrome images: rescued lung fibrosis compared to non-targeting siRNA and untreated fibrotic lungs
